The numbers were not newly measured in patent publication US4996197A, “Pharmaceutical and/or cosmetic composition for local use containing Rhamsan gum” (Laboratoires Merck Sharp & Dohme-Chibret, priority 1987, dated 1991), which cites them from elsewhere.

The conditions of this data set: with polyvinyl alcohol; Maichuk, Am. J. Ophthal, 74: 694, 1972.

Regarding erythrocin propionate, the “pharmacological response to medicinal products” value was “enhances the pharmacological response”.
On to `Nc1ccc(S(=O)(=O)[N-]c2cccnn2)cc1.[Na+]` [sulphapyridazine sodium], for which the “pharmacological response to medicinal products” value was “enhances the pharmacological response”.
